Experiments:
[1] = test system: healthy human prostate epithelial cells (RWEP-1); experiment: Cell proliferation test, neutral red release method, media M1-M3; format: cell-based; details: RWEP-1, media M1, M2 or M3, 24 hours
Method: (§1) • Healthy human prostate epithelial cells (RWEP-1, ATCC No. CRL-11609) • Human prostate carcinoma (22Rv1 ATCC No. CRL-2505) Culture: • 37° C., 5% CO2, 95% humidity
(§2) • Keratinocyte-serum free medium (KSFM) (Invitrogen, 17005-042) • Epidermal Growth Factor, 5 ng/ml (Invitrogen, 10450-013) • Bovine pituitary extract, 0.05 mg/ml (Invitrogen, 13028-014) • Penicillin 50 IU/ml-streptomycin 50 μg/ml 10 (v/v, Invitrogen 15070-063) Medium M2=Medium recommended for tumor cells (22Rv1): • RPMI 1640 medium (Invitrogen, 31870-025) • Decomplemented fetal calf serum, 10% (v/v Invitrogen 10270-098) • L-Glutamine, 1% (v/v Invitrogen 25030-024) • Penicillin 50 IU/ml-streptomycin 50 μg/ml 1 (v/v, • Invitrogen 15070-063) Medium M3=Mixed medium: • Whole keratinocyte-serum free medium, 50% (v/v) • Whole RPMI 1640 medium, 50% (v/v) […]
(§3) After 24 hours of growth, the healthy and tumoral cell lines were incubated in the presence of β-sitosterol (reference product) at 8 concentrations (see paragraph b) above) or of CPE at 8 concentrations (see paragraph b) above). […] The amount of stain incorporated into the cells is measured by spectro-photometric reading at 540 nm and is directly pro-portional to the number of live cells. The results were expressed as a percentage of inhibition relative to the untreated control.

[2] = test system: human prostate carcinoma (22Rv1); experiment: as above; format: cell-based; details: 22Rv1, media M1, M2 or M3, 24 hours
Method: as §1, §2, §3

[3] = test system: coculture of 22Rv1 and RWEP-1 cells; experiment: Anti-galectin 8 immunolabeling of treated coculture; format: cell-based, human; details: medium M3, 2.5×10^−4% and 1.2×10^−4%
Method: As a result, an anti-galectin 8 human monoclonal antibody (R&D Systems, Ref: MAB1305) was selected to specifically fluorescence-label the human prostate tumor cell line.
The healthy and tumoral cells were inoculated in coculture, at a rate of 30 000 cells per well for each cell line, in the selected medium for obtaining uniform and specific labeling of the tumoral cells.
After 24 hours in an incubator at 37° C. and 5% CO2 of saturated humidity, the coculture was incubated in the presence of β-sitosterol at two concentrations and of CPE also at two concentrations.
At the end of the incubation time with the products, the cell lawns were fixed in alcohol/acetic acid and then labeled with the anti-galectin 8 human monoclonal antibody for 1 hour. […] After intensive washing with PBS, the labeled cell lawns were observed using a Nikon DXM1200F camera driven by LUCIA 6.0 software. All the images were taken under the same conditions and with identical camera settings.
For the experiment, in order to improve the intensity of this immunolabeling and for better visual rendering quality, the concentration of the anti-galectin 8 primary antibody was increased from 1/50th to 1/20th. Furthermore, this primary antibody was incubated overnight at +4° C. for better fixing of the antibody and thus for better labeling intensity. […]

SMILES: CC[C@H](CC[C@@H](C)[C@H]1CC[C@H]2[C@@H]3CC=C4C[C@@H](O)CC[C@]4(C)[C@H]3CC[C@]12C)C(C)C [β-sitosterol]
- Inhibition of proliferation [1]: weak inhibition of proliferation
- Inhibition of proliferation [2]: weak inhibition of proliferation
- Area of labeling (anti-galectin 8 and Hoechst) [3]: equivalent to that of the untreated proliferation control
